Patent US6002002A, “Anti-ischaemic hydroxylamine derivatives and pharmaceutical compositions” (Biorex Research & Development Co., priority 1995, dated 1999)
pEC50: −log10 of the molar value.

Assays:
[1] = system: anaesthetized rats; test: Reperfusion-induced arrhytmia (ventricular tachycardia and fibrillation) after LAD coronary occlusion in anaesthetized rats; survival; type: in vivo; details: rat, 1 mg/kg i.v. 5 minutes before pressing LAD coronary artery; 5 min ischaemia, 10 min reperfusion
Procedure: The reperfusion-induced arrhytmia (ventricular tachycardia, KT and ventricuiar fibrillation, KF) was tested on anaesthetized rats. Myocardial ischaemia was induced by pressing the coronary artery for 5 minutes followed by 10 minutes reperfusion of the heart. The ECG was permanently monitored and the change of mean period of KT and KF by the effect of active materials was measured in the first 3 minutes of reperfusion. Survival was also monitored. The compounds were administered i.v. 5 minutes before pressing the LAD coronary artery in a dosis of 1 mg/kg.
Experimental results obtained by administering some representative compounds of the invention are listed below: […]

[2] = system: isolated rabbit thoracal aorta; test: in vitro vasorelaxation on isolated rabbit thoracal aorta; type: cell-based; details: Oryctolagus cuniculus
Procedure: The vasorelaxant effect of the compounds of the invention was tested in vitro on isolated rabbit thoracal aorta according to Am. J. Physiol. 257:, 1327-1333 (1989).

[3] = system: platelet aggregation; test: Inhibition of ADP-induced platelet aggregation in platelet-rich preparates from human venal blood; type: cell-based; details: concentration inhibiting the aggregation in 50%, read-out: antiaggregation EC50
Procedure: To the samples sodium citrate was added and 10 minutes later centrifuged with 1000 rpm.

Compound	Survival % [1] [%]	pEC50 [2]	pEC50 [3]
CCCCCCNC(=O)NOCC(O)CN1CCCCC1 (stereo not shown) [Example 6, N-n-hexyl-N'-(2-hydroxy-3-piperidino-propoxy)-urea]	100	3.72	2.82
CCCCCCNC(=O)NOCCCN1CCCCC1 [Example 16, N-n-hexyl-N'-(3-piperidino-propoxy)-urea]	83	3.35	3.15
CC(C)(C)N(CC(O)CONC(=O)NC1CCCCC1)C(=O)NC1CCCCC1 (stereo not shown) [Example 15, N-cyclohexyl-N'-{2-hydroxy-3-[N-(cyclohexyl-carbamoyl)-N-tert-butylamino]-propoxy}-urea]	60	–	–
O=C(NOCC(O)CN1CCCCC1)Nc1cccc([N+](=O)[O-])c1 (stereo not shown) [Example 19, N-(3-nitrophenyl)-N'-(2-hydroxy-3-piperidino-propoxy)-urea]	–	4.42	3.47
O=C(NOCC(O)CN1CCCCC1)NC1CCCCC1 (stereo not shown) [Example 5, N-cyclohexyl-N'-(2-hydroxy-3-piperidino-propoxy)-urea]	67	–	–
O=C(NOCC(O)CN1CCCCC1)Nc1cccc(Cl)c1 (stereo not shown) [Example 7, N-(3-chlorophenyl)-N'-(2-hydroxy-3-piperidino-propoxy)-urea]	86	4.00	3.05
CCCNC(=O)NOCC(O)CN1CCCCC1 (stereo not shown) [Example 4, N-n-propyl-N'-(2-hydroxy-3-piperidino-propoxy)-urea]	67	–	–
CCOC(=O)[N-]c1c[n+](N2CCOCC2)no1 [Molsidomin, reference compound]	–	–	2.82
CCCCCCCNC(=O)NOCC(O)CN1CCCCC1 (stereo not shown) [Example 23, N-heptyl-N'-(2-hydroxy-3-piperidino-propoxy)-urea]	80	3.72	3.37
CC(C)COCC(CN(Cc1ccccc1)c1ccccc1)N1CCCC1 (stereo not shown) [Bepridyl, reference compound]	–	4.08	–
